How the values were obtained:
[1] = system: Zucker Diabetic Fatty rats (ZDF fa/fa); experiment: Diabetic rat study, 28-day; type: in vivo; set-up: total serum protein: unit not given here; conditions: for glycemic control / insulin: 28-day treatment, relative to vehicle treatment; for hematocrit (% RBC volume): vehicle 49±0.3; for hemodilution as indicated by hematocrit and total serum protein: day 28, versus vehicle group
Protocol: The five PPAR pan agonist molecules prepared above were administered by oral gavage to genetically altered rodents that simulate the human disease of type 2 Diabetes Mellitus (Zucker Diabetic Fatty rats (ZDF fa/fa)). As a control a PPAR gamma agonist 2-[2-(methoxycarbonyl)anilino]-3-{4-[2-(5-methyl-2-phenyl-1,3-oxazol-4-yl)ethoxy]phenyl}propanoic acid was also tested. This PPAR gamma agonist can be prepared as described in Cobb, J. E., et al., N-(2-Benzoylphenyl)-L-tyrosine PPARg agonists. 3. Structure-activity relationship and optimization of the N-aryl substituent., J. Med. Chem. 1998, 41, 5055-5069. As an additional control, one group was treated with vehicle alone.
While all five hPPAR pan agonist molecules were evaluated in the above study for 7 days, one of these pan agonists, 2-{4-[({4-{[4-(4-methoxyphenyl)-1-piperazinyl]methyl}-2-[4-(triflouromethyl)phenyl]-1,3-thiazol-5-yl}methyl)sulfanyl]phenoxy}-2-methylpropanoic acid, and the PPAR gamma agonist were tested for 28 days. Animals were treated earlier than in the 7-day study, before the development of diabetes as measured by increased plasma glucose. Measurements were obtained at 7 day intervals and the PPAR pan agonist molecule (♦) was compared to vehicle control (*) and the PPAR gamma agonist (□). [formula] [formula] [formula]

Cynomolgus monkeys = experiment: Primate study, edema and hemodilution; type: in vivo, Cynomolgus monkey; conditions: oral once daily for 63 or 64 days, 1, 5 and 15 mg/kg
Protocol: In addition to the above rat studies, a primate study was conducted using the PPAR pan agonist 2-{4-[({4-{[4-(4-methoxyphenyl)-1-piperazinyl]methyl}-2-[4-(trifluoromethyl)phenyl]-1,3-thiazol-5-yl}methyl)sulfanyl]phenoxy}-2-methylpropanoic acid. In that study, male and female Cynomolgus monkeys were dosed orally once daily for 63 or 64 days with doses projected to provide greater than 3× the serum concentration needed to lower insulin resistance and serum glucose in diabetic patients. The animals were dosed at 0 mg/kg (control), 1 mg/kg, 5 mg/kg, and 15 mg/kg of the PPAR pan agonist. The animals were carefully observed for signs of edema and or hemodilution. Methods of evaluation during the in-life portion of the study included visual observation of swelling, particularly around the eyes and or genitals by a Board Certified pathologist, as well as evaluation of clinical hematology (red blood cell volume) and clinical chemistries (total serum protein) as evidence of hemodilution. At necropsy, careful examination for gross evidence of edema was based on palpation and careful examination of all issue. Special emphasis was given to the gross evaluation of subcutaneous tissue, all fat stores, lungs and all serous cavities.

COC(=O)c1ccccc1NC(Cc1ccc(OCCc2nc(-c3ccccc3)oc2C)cc1)C(=O)O (stereo not shown) [PPAR gamma agonist, 2-[2-(methoxycarbonyl)anilino]-3-{4-[2-(5-methyl-2-phenyl-1,3-oxazol-4-yl)ethoxy]phenyl}propanoic acid, reference compound]
body weight increase from the start of dosing ([1]; 28-day study): 120%
glycemic control [1]: maintained glycemic control
insulin [1]: lowered insulin
hematocrit (% RBC volume) ([1]; after 28 days): 43±1.0 % RBC volume
hemodilution as indicated by hematocrit and total serum protein [1]: evident

COc1ccc(N2CCN(Cc3nc(-c4ccc(C(F)(F)F)cc4)sc3CSc3ccc(OC(C)(C)C(=O)O)cc3)CC2)cc1 [PPAR pan agonist, 2-{4-[({4-{[4-(4-Methoxyphenyl)-1-piperazinyl]methyl}-2-[4-(trifluoromethyl)phenyl]-1,3-thiazol-5-yl}methyl)sulfanyl]phenoxy}-2-methylpropanoic acid]
body weight gain compared with vehicle treated animals ([1]; 28-day study): not significantly different from the vehicle treated animals
glycemic control [1]: maintained glycemic control
insulin [1]: lowered insulin
total serum protein ([1]; after 28 days, vehicle 7.5±0.2): 7.2±0.2
hematocrit (% RBC volume) ([1]; after 28 days): 48±0.9 % RBC volume
hemodilution as indicated by hematocrit and total serum protein [1]: not significantly different from the vehicle group
edema in tissues examined histologically (Cynomolgus monkeys): No evidence of edema
signs of edema or hemodilution during in-life or necropsy portions (Cynomolgus monkeys): no signs or suggestions of edema or hemodilution
